# Ends that are not written are not given here.
# Legend:
# [1] = Acid stability; assay type: physicochemical; conditions: in 0.2 M HCl, 37 °C, 0-120 min, RP-UHPLC peak area as % of initial, n = 3
# Description: 0.1 M of purified roseltide rT1 was dissolved in 0.2 M HCl or phosphate buffered saline (PBS) (control) and incubated at 37 °C. Samples were collected at various time points (0, 15, 30, 45, 60 and 120 min).
# [2] = molecular target: trypsin (Bos taurus, UniProt P00760); conditions: 0.1 M peptide, 100 mM Tris buffer pH 8, trypsin 50:1 (w/v), 37 °C, 0-120 min, RP-UHPLC peak area, n = 3
# Description: (§1) 0.1 M of purified roseltide rT1 was dissolved in 100 mM Tris buffer (pH 8) and incubated with trypsin (Catalog number: T1426, Roche Applied Science, US) in a 50:1 (w/v) ratio at 37 °C. 0.1 M of purified roseltide rT1 was dissolved in 0.2 M HCl and incubated with pepsin (Catalog number: 03117901001, Roche Applied Science, US) in a 50:1 (w/v) ratio at 37 °C. […] Samples were collected at various time points (0, 15, 30, 45, 60 and 120 min).
# (§2) All collected samples from various stability assays were analyzed by RP-UHPLC with a linear gradient of mobile phase A (0.05% TFA/H2O) and mobile phase B (0.05% TFA/ACN) on C18 column (3.6 μm particle size; 2.1 mm internal diameter; 10 cm length) (Phenomenex, US). The resulting peaks were collected and the identified by MALDI-TOF MS. The results were expressed as percentage of initial concentration using the peak area of the UHPLC profile.
# [3] = molecular target: pepsin (Sus scrofa, UniProt P00791); conditions: 0.1 M peptide, 0.2 M HCl, pepsin 50:1 (w/v), 37 °C, 0-120 min, RP-UHPLC peak area, n = 3
# Sequence of pepsin (P00791 60-385): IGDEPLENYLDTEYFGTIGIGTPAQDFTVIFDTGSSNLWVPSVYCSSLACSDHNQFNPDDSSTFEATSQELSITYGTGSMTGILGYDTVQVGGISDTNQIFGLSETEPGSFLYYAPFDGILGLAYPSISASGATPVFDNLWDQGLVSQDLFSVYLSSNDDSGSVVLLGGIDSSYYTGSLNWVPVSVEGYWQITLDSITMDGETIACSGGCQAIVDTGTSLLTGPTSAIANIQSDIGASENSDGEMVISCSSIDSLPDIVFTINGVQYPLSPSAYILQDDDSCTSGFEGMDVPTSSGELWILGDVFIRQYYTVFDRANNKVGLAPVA
# Description: as §1, §2
# [4] = Human serum stability; assay type: in vitro ADME; conditions: 0.1 M peptide, 25% human serum in DMEM without phenol red, 37 °C, 0, 24 and 48 h, ethanol precipitation, RP-UHPLC peak area, n = 3
# Description: 0.1 M of purified roseltide rT1 was prepared in 25% human serum in DMEM medium without phenol red. The test samples were incubated at 37 °C. DALK was used as a positive control. Samples were collected at various time points (0, 24 and 48 h). The collected samples were subjected to protein precipitation with 100% ethanol and centrifugation at 180,000 g for 5 min at 4 °C. The supernatant was collected for analysis.
# [5] = test system: PAR2-cAMP-CHO cells; test: Glosensor cAMP assay, neutrophil elastase-stimulated cAMP accumulation; assay type: cell-based, Chinese Hamster; conditions: co-incubation of HNE with peptide; CHO-K1 co-expressing PAR2 and Glosensor cAMP biosensor; luminescence 20 min, area under the curve; n = 3
# Description: Huh7 (human liver carcinoma cells), A549 (human lung adenocarcinoma epithelial cells) cells, and Chinese Hamster Ovary-K1 cells (CHO-K1) were cultured in Dulbecco’s Modified Eagle’s Medium (DMEM)/Ham’s F12 containing 15 mM HEPES and L-glutamine and supplemented with 10% fetal bovine serum, 100 U/mL of penicillin, and streptomycin. The cells were grown in a 5% CO2 humidified incubator at 37 °C. CHO-K1 cells were transfected with pGlosensor-20F plasmid by electroporation and selected using 500 μg/mL hygromycin. CHO-K1 cells stably expressing the pGlosensor-20F construct (cAMP-CHO) were then transfected with pCMV6-XL5 encoding PAR2 receptor (NM 005242.3) and selected using 500 μg/mL G418. Stable cell lines co-expressing both pGlosensor-20F and PAR2 receptor constructs (PAR2-cAMP-CHO) were maintained with 500 μg/mL hygromycin and 500 μg/mL G418.
# Glosensor cAMP assays were performed according to the manufacturer’s instructions. […] Luminescent intensity was measured using a microplate reader (Tecan Infinite 200 Pro, Switzerland); the plate was pre-read for 30 s to establish basal luminescent level. Following treatment, luminescent levels were continuously monitored for 20 min. The results are presented as fold change relative to basal luminescent levels and were quantified using the area under the curve.
# [6] = molecular target: T1, Human neutrophil elastase (HNE) (Homo sapiens, UniProt P08246); test: Human neutrophil elastase inhibition assay; assay type: biochemical; conditions: 1.75 U/mL HNE, 0.6 mM N-Methoxysuccinyl-Ala-Ala-Pro-Val p-nitroanilide, 100 mM Tris buffer pH 8.0, 37 °C, absorbance 405 nm for 1 h, normalized initial velocity, mean n = 3; read-out: IC50, enzymatic activity of human neutrophil elastase
# T1 construct: purchased Sigma-Aldrich or ThermoFisher Scientific (general statement only)
# T1 sequence (P08246 30-267): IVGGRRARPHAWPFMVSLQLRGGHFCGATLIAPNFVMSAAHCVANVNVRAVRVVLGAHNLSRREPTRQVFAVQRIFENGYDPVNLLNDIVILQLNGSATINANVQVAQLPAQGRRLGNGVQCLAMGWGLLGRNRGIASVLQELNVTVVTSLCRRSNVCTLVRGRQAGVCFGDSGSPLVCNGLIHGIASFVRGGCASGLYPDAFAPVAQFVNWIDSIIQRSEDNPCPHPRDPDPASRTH
# Description: Human neutrophil elastase (HNE) activity was determined by measuring the release of p-nitroanilide at 405 nm at 37 °C using N-Methoxysuccinyl-Ala-Ala-Pro-Val p-nitroanilide as substrates. Purified roseltide rT1 was incubated with 1.75 U/mL HNE and 0.6 mM substrate in 100 mM Tris buffer (pH 8.0) at 37 °C; absorbance was measured continuously for 1 h. […] The results were presented as normalized initial velocity.
# [7] = molecular target: human neutrophil elastase (human) (UniProt P08246)
# Sequence of trypsin (P00760 24-246): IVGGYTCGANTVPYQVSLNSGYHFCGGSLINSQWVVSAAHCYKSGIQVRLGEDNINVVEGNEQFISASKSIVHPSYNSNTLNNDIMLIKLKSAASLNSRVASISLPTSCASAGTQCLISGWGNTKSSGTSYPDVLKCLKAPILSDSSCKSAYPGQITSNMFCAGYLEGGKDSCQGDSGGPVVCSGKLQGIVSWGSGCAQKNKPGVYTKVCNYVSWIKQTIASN
Substance,acid stability (resistance against degradation) [1],trypsin stability (resistance against degradation) [2],pepsin stability (resistance against degradation) [3],human serum stability (resistance against degradation) [4],effect on human neutrophil elastase-stimulated cAMP accumulation [5],IC50 [6] [nM],"inhibition of the enzymatic activity of human neutrophil elastase (release of p-nitroanilide from N-methoxysuccinyl-Ala-Ala-Pro-Val p-nitroanilide, 405 nm, 37 °C, 100 mM Tris pH 8.0), IC50 [7] [μM]"
"CIPRGGICLVALSGCCNSPGCIFGICA (also: bicyclic or more (positions not given here)) [roseltide rT1, 27-residue cystine-knot peptide purified from Hibiscus sabdariffa calyces; disulfides Cys1-Cys16, Cys8-Cys21, Cys15-Cys26]",resistant,resistant,resistant,resistant,significantly suppressed,470,
roseltide rT1 (peptide),,,,,,,0.47

# Reference: PMC5171801, “Identification and Characterization of Roseltide, a Knottin-type Neutrophil Elastase Inhibitor Derived from Hibiscus sabdariffa” (Scientific Reports, 2016)
